Publication PMC2376372, “3-Bromophenyl 6-acetoxymethyl-2-oxo-2H-1-benzopyran-3-carboxylate inhibits cancer cell invasion in vitro and tumour growth in vivo” (British Journal of Cancer, 2003)

Tests used:
[1] = biological target: T1, MMP-2 (Homo sapiens, UniProt P08253); experiment: Inhibition of purified MMP-2; assay type: biochemical; settings: purified enzyme, pH 7.5, 25°C
T1 construct: purchased Calbiochem
T1 sequence (P08253 110-660): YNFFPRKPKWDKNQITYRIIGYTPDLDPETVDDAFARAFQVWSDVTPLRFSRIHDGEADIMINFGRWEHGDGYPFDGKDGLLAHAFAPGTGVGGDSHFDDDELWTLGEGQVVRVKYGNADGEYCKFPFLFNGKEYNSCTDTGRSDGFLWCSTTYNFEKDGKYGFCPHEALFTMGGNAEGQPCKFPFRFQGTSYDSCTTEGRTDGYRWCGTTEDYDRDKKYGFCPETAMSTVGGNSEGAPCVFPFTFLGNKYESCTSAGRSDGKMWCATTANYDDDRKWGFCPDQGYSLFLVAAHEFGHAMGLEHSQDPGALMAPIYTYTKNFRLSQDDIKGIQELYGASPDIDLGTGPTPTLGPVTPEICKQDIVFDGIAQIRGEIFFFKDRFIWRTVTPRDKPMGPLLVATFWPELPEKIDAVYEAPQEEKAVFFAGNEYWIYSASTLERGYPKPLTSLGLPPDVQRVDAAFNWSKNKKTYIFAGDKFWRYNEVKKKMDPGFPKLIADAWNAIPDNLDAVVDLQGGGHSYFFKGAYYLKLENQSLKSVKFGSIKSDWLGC
Method: Bovine α-CT and LMW-uPA (MW=33 000 Da) were purchased from Sigma, HMW-uPA (MW=54 000 Da) from Choay, trypsin (TRY) and THR from Boehringer-Indelheim (Germany), and MMP-2 and MMP-9 from Calbiochem. Human leucocyte elastase and PM were from Elastase Products Co. and Biogenic, respectively. Except for THR, HMW-uPA, MMP-2 and MMP-9, enzyme concentrations were determined by active-site titrations using the appropriate titrant ([Bender et al, 1966]; [Chase and Shaw, 1970]; [Powers and Gupton, 1977]). Several enzymes were assayed spectrophotometrically at 405 nm using the following p-nitroanilide substrates: succininyl-Ala2-Pro-Phe-p-nitroanilide (Suc-AAPF-p-NA), benzoyl-Arg-p-nitroanilide (Bz-R-p-NA) and methoxysuccinyl-Ala2-Pro-Val-p-nitroanilide (MeO-Suc-AAPV-p-NA) for α-CT, TRY and HLE, respectively (obtained from Sigma); or S-2238 ([…]), S-2444 (<Glu-Gly-Arg-p-nitroanilide) and S-2251 (H-D-Val-Leu-Lys-p-nitroanilide) for THR, HMW- and LMW-uPA, and PM, respectively (from Biogenic). Matrix metalloprotease-2 previously activated by treatment with APMA were assayed at 412 nm with the thiopeptide Ac-Pro-Leu-Gly-^Sleu-Leu-Gly-Oet in the presence of 5,5′-dithiobis(2-nitrobenzenic) acid (DTNB). […]

[2] = test system: HMW- and LMW-uPA; experiment: Plasminogen zymography of HT1080 conditioned medium; assay type: biochemical, human; settings: 1–100 μM in HT1080 conditioned medium
Method: The culture medium of human fibrosarcoma HT1080 cells (DMEM) was removed and concentrated 20-fold in a Vivaspin 6 ml concentrator. It was incubated for 30 min at ambient temperature in nonreducing sample buffer and run under Laemmli conditions ([Laemmli, 1970]) by loading a volume of 25 μl onto 7.5% polyacrylamide gels containing 0.1% sodium dodecyl sulphate (SDS), 2 mg ml^−1 casein and 0.16 μM human plasminogen. Following electrophoresis, gels were incubated for 1 h in 2.5% (v v^−1) Triton X-100 for removal of SDS and then for 1 h at 37°C in 50 mM Tris-HCl, 0.1 M NaCl, pH 7.6. Plasminogen activator (PA) activity was visualised as clear bands of lysis upon staining with 0.1% Coomassie blue R250. Purified human high-molecular-weight two-chain urokinase plasminogen activator (HMW-uPA) and low-molecular-weight urokinase plasminogen activator (LMW-uPA) were run in each gel as positive controls. An analogous protocol was followed to detect enzymatic activities towards MMP-2 and MMP-9 except that the 7% SDS–PAGE contained 1 mg ml^−1 bovine gelatin. The gels were incubated at 37°C for about 18 h in 5 mM Tris, pH 7.6 containing 0.2 M NaCl, 5 mM CaCl2 and 0.02 (w v^−1) Brij35. Protein staining was performed during 1 h with a 0.25% solution of Coomassie brillant blue R250 in 50% methanol and 7% acetic acid and destaining in a solution of 20% methanol and […]. […]

## CC(=O)OCc1ccc2oc(=O)c(C(=O)Oc3cccc(Cl)c3)cc2c1 [compound 4, 3-chlorophenyl 6-acetoxymethyl-2-oxo-2H-1-benzopyran-3-carboxylate]
[1]
  inhibition of MMP-2: not affected
[2]
  effect on HMW- and LMW-uPA activities of conditioned culture medium (plasminogen zymography): did not abrogate

## CC(=O)OCc1ccc2oc(=O)c(C(=O)Oc3cccc(Br)c3)cc2c1 [compound 7, 3-bromophenyl 6-acetoxy-methyl-2-oxo-2H-1-benzopyran-3-carboxylate]
[1]
  inhibition of MMP-2: not affected
[2]
  effect on HMW- and LMW-uPA activities of conditioned culture medium (plasminogen zymography): did not abrogate
